Experimental data from PMC4335062, “Data-Driven Prediction and Design of bZIP Coiled-Coil Interactions” (PLoS Computational Biology, 2015).
Like-named read-outs stand apart in the source and are kept apart here. Where no end group is shown, it is not given here.

How the values were obtained:
Test in all cases: Direct-binding FRET assay
[1] = target: NFE2L1 (Homo sapiens, UniProt Q14494); parameters: made in house; conditions: read-out: Kd
Experimental: (§1) The direct binding assay was performed manually in 384-well plates and is similar to a previously described assay. Wells were filled with 20 μL of 1 mM TCEP-HCl. A 4 μM stock of acceptor protein was made fresh in 1 mM TCEP-HCl, and 20 μL was titrated in 2-fold dilutions over the wells. […] The direct-binding FRET data were fit as previously described. Briefly, the Kd of the designed peptide homodimer was experimentally determined and used with previously determined target homodimer Kd values to determine the heterodimer Kd. The homodimer Kd values used for the human bZIPs were from; experiments done by […] et al. used the same protein constructs for the human bZIP proteins, the same buffer conditions, and the same assay. The fitting used a system of ordinary differential equations to describe the concentrations of homo and heterodimers formed by the donor (D) and acceptor (A) as a function of the heterodimer Kd. MATLAB was used to simulate the binding experiment for different Kd values, and the value that gave the best agreement between simulation and experiment was assigned. A minimum 15% change in the donor fluorescence upon titrating the acceptor peptide from 0 to 1000 nM was required for a fit to be attempted. If this minimum was not met, the interaction was classified as “NS” for no signal change. […] These interactions were marked “AS” to indicate anomalous signal. We attributed this to interactions between the peptides, the dyes and the walls of the assay plates at low concentrations. These curves could not be fit, given their unusual shapes at low concentrations of acceptor. For such curves, we removed the first five points and re-fit the data. […] One example of this is increasing concentrations of acceptor causing an increase in donor fluorescence.

[2] = target: BACH1 (Homo sapiens, UniProt O14867); parameters: made in house; conditions: read-out: Kd
Sequence of BACH1 (O14867 557-620 limits assumed): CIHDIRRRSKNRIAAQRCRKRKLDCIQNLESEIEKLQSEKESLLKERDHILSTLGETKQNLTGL
Experimental: as §1

[3] = target: MAF (Homo sapiens, UniProt O75444); parameters: made in house; conditions: mean or single, read-out: Kd
Experimental: as §1

[4] = target: MAFB (Homo sapiens, UniProt Q9Y5Q3); parameters: made in house; conditions: mean or single, read-out: Kd
Experimental: as §1

[5] = target: ATF6 (Homo sapiens, UniProt P18850); parameters: made in house; conditions: read-out: Kd
Sequence of ATF6 (P18850 306-369 limits assumed): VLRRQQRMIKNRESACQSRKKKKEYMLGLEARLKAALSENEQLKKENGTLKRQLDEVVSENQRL
Experimental: as §1

[6] = target: BACH2 (Homo sapiens, UniProt Q9BYV9); parameters: made in house; conditions: read-out: Kd
Sequence of BACH2 (Q9BYV9 646-709 limits assumed): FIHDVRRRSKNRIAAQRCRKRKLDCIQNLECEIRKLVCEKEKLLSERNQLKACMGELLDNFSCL
Experimental: as §1

[7] = target: T1, BATF (Homo sapiens, UniProt Q16520); conditions: read-out: Kd
T1 construct: made in house
T1 sequence (Q16520 26-89 limits assumed): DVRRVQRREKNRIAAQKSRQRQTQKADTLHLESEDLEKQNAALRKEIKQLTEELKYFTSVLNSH
Experimental: as §1

[8] = target: T2, NFE2L2 (Homo sapiens, UniProt Q16236); conditions: read-out: Kd
T2 construct: made in house
T2 sequence (Q16236 497-560 limits assumed): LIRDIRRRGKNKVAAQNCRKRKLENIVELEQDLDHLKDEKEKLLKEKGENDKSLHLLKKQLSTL
Experimental: as §1

[9] = target: T3, JUNB (Homo sapiens, UniProt P17275); conditions: read-out: Kd
T3 construct: made in house
T3 sequence (P17275 268-331 limits assumed): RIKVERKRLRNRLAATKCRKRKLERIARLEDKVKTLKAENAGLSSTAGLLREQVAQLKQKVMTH
Experimental: as §1

[10] = target: T4, CREB3L1 (Homo sapiens, UniProt Q96BA8); conditions: mean or single, read-out: Kd
T4 construct: made in house
T4 sequence (Q96BA8 290-353 limits assumed): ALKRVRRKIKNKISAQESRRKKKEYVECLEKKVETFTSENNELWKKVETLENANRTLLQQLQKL
Experimental: as §1

[11] = target: T5, CREB3L3 (Homo sapiens, UniProt Q68CJ9); conditions: read-out: Kd
T5 construct: made in house
T5 sequence (Q68CJ9 243-306 limits assumed): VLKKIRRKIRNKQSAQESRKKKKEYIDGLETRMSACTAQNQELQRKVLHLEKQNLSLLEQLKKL
Experimental: as §1

[12] = 4°C, C-terminal rhodamine design, mean or single
[13] = 23°C, C-terminal rhodamine design, mean or single
[14] = 23°C, N-terminal rhodamine design, mean or single
[15] = 23°C, N-terminal rhodamine design, repeat 1
[16] = 23°C, N-terminal rhodamine design, repeat 2
[17] = 37°C, C-terminal rhodamine design, mean or single
[18] = 37°C, N-terminal rhodamine design, mean or single
[19] = 37°C, N-terminal rhodamine design, repeat 1
[20] = 37°C, N-terminal rhodamine design, repeat 2
[21] = 4°C, C-terminal fluorescein design as donor, TAMRA target titrated
[22] = 23°C, C-terminal fluorescein design as donor, TAMRA target titrated
[23] = 37°C, C-terminal fluorescein design as donor, TAMRA target titrated
[24] = 4°C, C-terminal rhodamine design
[25] = 4°C, N-terminal rhodamine design
[26] = 23°C, C-terminal rhodamine design
[27] = 23°C, N-terminal rhodamine design
[28] = 37°C, C-terminal rhodamine design
[29] = 37°C, N-terminal rhodamine design
[30] = 4°C, N-terminal rhodamine design, mean or single

Sequence of NFE2L1 (Q14494 654-717 limits assumed): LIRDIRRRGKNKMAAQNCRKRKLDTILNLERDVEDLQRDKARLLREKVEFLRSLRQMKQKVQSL

Kd [1, 12]: > 5000 nM
Kd ([1]; 4°C, N-terminal rhodamine design, repeat 1): > 1000 nM
Kd ([1]; 4°C, N-terminal rhodamine design, repeat 2): > 1000 nM
Kd [1, 13]: > 5000 nM
Kd [1, 14]: > 1000 nM
Kd [1, 15]: > 1000 nM
Kd [1, 16]: > 1000 nM
Kd [1, 17]: > 1000 nM
Kd [1, 18]: > 1000 nM
Kd [1, 19]: > 1000 nM
Kd [1, 20]: > 1000 nM
Kd [2, 21]: > 1000 nM
Kd [2, 12]: > 5000 nM
Kd [2, 22]: > 1000 nM
Kd [2, 13]: > 1000 nM
Kd [2, 15]: > 1000 nM
Kd [2, 16]: > 5000 nM
Kd [2, 23]: > 1000 nM
Kd [2, 17]: > 1000 nM
Kd [2, 18]: > 1000 nM
Kd [2, 19]: > 1000 nM
Kd [2, 20]: > 1000 nM
Kd [3, 24]: > 5000 nM
Kd [3, 25]: > 1000 nM
Kd [3, 26]: > 5000 nM
Kd [3, 27]: > 1000 nM
Kd [3, 28]: 460 nM
Kd [3, 29]: > 1000 nM
Kd [4, 24]: > 5000 nM
Kd [4, 25]: > 1000 nM
Kd [4, 26]: > 5000 nM
Kd [4, 27]: > 1000 nM
Kd [4, 28]: 402 nM
Kd [4, 29]: > 1000 nM
Kd [5, 21]: > 1000 nM
Kd [5, 12]: > 1000 nM
Kd [5, 30]: > 1000 nM
Kd [5, 22]: > 1000 nM
Kd [5, 13]: > 1000 nM
Kd [5, 14]: > 1000 nM
Kd [5, 23]: > 1000 nM
Kd [5, 17]: > 1000 nM
Kd [5, 18]: > 1000 nM
Kd [6, 21]: > 1000 nM
Kd [6, 12]: > 5000 nM
Kd [6, 30]: > 1000 nM
Kd [6, 22]: > 5000 nM
Kd [6, 13]: > 1000 nM
Kd [6, 14]: > 5000 nM
Kd [6, 23]: > 1000 nM
Kd [6, 17]: > 5000 nM
Kd [6, 18]: > 1000 nM
Kd [7, 12]: > 1000 nM
Kd [7, 30]: > 5000 nM
Kd [7, 22]: > 1000 nM
Kd [7, 13]: > 1000 nM
Kd [7, 14]: > 1000 nM
Kd [7, 23]: > 1000 nM
Kd [7, 17]: > 1000 nM
Kd [7, 18]: > 1000 nM
Kd [8, 21]: > 5000 nM
Kd [8, 30]: 47.9 nM
Kd [8, 22]: > 1000 nM
Kd [8, 13]: > 5000 nM
Kd ([8]; 23°C, C-terminal rhodamine design, repeat 1): > 5000 nM
Kd ([8]; 23°C, C-terminal rhodamine design, repeat 2): > 5000 nM
Kd ([8]; 23°C, C-terminal rhodamine design, repeat 3): > 5000 nM
Kd [8, 14]: > 1000 nM
Kd [8, 23]: > 1000 nM
Kd ([8]; 37°C, C-terminal rhodamine design, repeat 1): > 1000 nM
Kd ([8]; 37°C, C-terminal rhodamine design, repeat 2): > 1000 nM
Kd ([8]; 37°C, C-terminal rhodamine design, repeat 3): > 5000 nM
Kd [8, 18]: > 1000 nM
Kd [9, 21]: > 1000 nM
Kd [9, 12]: > 1000 nM
Kd [9, 30]: > 1000 nM
Kd [9, 22]: > 1000 nM
Kd [9, 13]: > 1000 nM
Kd [9, 14]: > 1000 nM
Kd [9, 23]: > 1000 nM
Kd [9, 17]: > 1000 nM
Kd [9, 18]: > 1000 nM
Kd [10, 24]: > 5000 nM
Kd [10, 25]: > 1000 nM
Kd [10, 26]: < 200 nM
Kd [10, 27]: > 1000 nM
Kd [10, 28]: > 1000 nM
Kd [10, 29]: > 1000 nM
Kd [11, 21]: > 1000 nM
Kd [11, 12]: > 5000 nM
Kd [11, 30]: > 1000 nM
Kd [11, 22]: > 1000 nM
Kd [11, 13]: > 1000 nM
Kd [11, 14]: > 1000 nM
Kd [11, 23]: > 1000 nM
Kd [11, 17]: > 1000 nM
Kd [11, 18]: > 1000 nM
Sequence: NQIKTLRTRLSKLRKDNLQLEKDIANLERKAKDLRAEKEQLEYEL [ATF4-d1]
